# Experimental data from article PMC9137552, “Structural Characterization of Two Short Unspecific Peroxygenases: Two Different Dimeric Arrangements” (Antioxidants, 2022).
# Where two headings read alike, the source gives them in different places.
# How the values were obtained:
# rMroUPO [1] = system: T1, rMroUPO; test: initial rates, absorbance at […] nm, Michaelis-Menten fit; format: biochemical, Marasmius rotula; conditions: 5 mM H2O2; 0.1 M acetate pH 5.0
# T1 construct: gene MroUPO; mature enzyme without signal peptide, initial Met added, no tag, codon-optimised in pET23a, E. coli BL21, non-glycosylated; homodimer (C227-C227' disulfide), monomer 26-27 kDa; short UPO
# rCviUPO [2] = system: T2, rCviUPO; conditions: read-out: K228stop; K228stop variant; 1 mM H2O2; 0.1 M acetate pH 4.0
# T2 construct: gene CviUPO
# rCviUPO [3] = system: T2, rCviUPO; conditions: read-out: C235A; 1 mM H2O2; 0.1 M acetate pH 4.0
# [4] = molecular target: rCviUPO C235A variant (Collariella virescens); test: AUC + other: dynamic light scattering; sedimentation velocity, c(s) distributions (SEDFIT); diffusion coefficients from parallel DLS; molecular mass by the Svedberg equation
# [5] = molecular target: recombinant unspecific peroxygenase from Collariella virescens (rCviUPO), native (nonmutated) (Collariella virescens); test: as above
# [6] = molecular target: recombinant unspecific peroxygenase from Collariella virescens (rCviUPO), native (nonmutated) (Collariella virescens); test: SEC; Superdex 75, isocratic elution with 10 mM Tris (pH 7.4), 0.15 M NaCl; masses against standards, compared with SDS-PAGE with mercaptoethanol; P201stop analysed during its last purification step
# [7] = molecular target: rCviUPO K228stop variant (C-terminal tail deletion) (Collariella virescens); test: AUC + other: dynamic light scattering; sedimentation velocity, c(s) distributions (SEDFIT); diffusion coefficients from parallel DLS; molecular mass by the Svedberg equation
# [8] = molecular target: recombinant unspecific peroxygenase from Marasmius rotula (rMroUPO), native (nonmutated) (Marasmius rotula); test: SEC; Superdex 75, isocratic elution with 10 mM Tris (pH 7.4), 0.15 M NaCl; masses against standards, compared with SDS-PAGE with mercaptoethanol; P201stop analysed during its last purification step
# rCviUPO [9] = system: T3, rCviUPO; test: initial rates, absorbance at […] nm, Michaelis-Menten fit; format: biochemical, Collariella virescens; conditions: K228stop variant; 1 mM H2O2; 0.1 M tartrate pH 5.0
# T3 construct: gene CviUPO; mature enzyme without signal peptide, initial Met added, no tag, codon-optimised in pET23a, E. coli BL21, non-glycosylated; homodimer, monomer 26-27 kDa; known only as recombinant enzyme; short UPO
# rMroUPO [10] = system: T1, rMroUPO; test: as above; format: biochemical, Marasmius rotula; conditions: 5 mM H2O2; 0.1 M tartrate pH 4.0
# rCviUPO [11] = system: T3, rCviUPO; test: as above; format: biochemical, Collariella virescens; conditions: 1 mM H2O2; 0.1 M tartrate pH 5.0; read-out: C235A
# rCviUPO [12] = system: T3, rCviUPO; test: as above; format: biochemical, Collariella virescens; conditions: 1 mM H2O2; 0.1 M tartrate pH 5.0
# rCviUPO [13] = system: T3, rCviUPO; test: as above; format: biochemical, Collariella virescens; conditions: 1 mM H2O2; 0.1 M acetate pH 3
# rCviUPO [14] = system: T3, rCviUPO; test: as above; format: biochemical, Collariella virescens; conditions: 1 mM H2O2; pH 4.0 (table note; methods text gives pH 3 or 5); read-out: C235A
# rMroUPO [15] = system: T1, rMroUPO; test: as above; format: biochemical, Marasmius rotula; conditions: 5 mM H2O2; 0.1 M acetate pH 4.6
# rCviUPO [16] = system: T3, rCviUPO; test: as above; format: biochemical, Collariella virescens; conditions: K228stop variant; 1 mM H2O2; pH 4.0 (table note; methods text gives pH 3 or 5)
compound,measurement,setting,value
"CCn1c(=NN=c2sc3cc(S(=O)(=O)O)ccc3n2CC)sc2cc(S(=O)(=O)O)ccc21 [ABTS, 2,2′-azino-bis(3-ethylbenzothiazoline-6-sulfonic acid)]",Km,rMroUPO [1],246 ± 3 µM
same,Km,rCviUPO [2],110 ± 15 µM
same,Km,rCviUPO [3],87 ± 7 µM
rCviUPO C235A variant (enzyme),stoichiometry N,[4],2
"recombinant unspecific peroxygenase from Collariella virescens (rCviUPO), native (nonmutated) (enzyme)",stoichiometry N,[5],2
same,stoichiometry N,[6],2
rCviUPO K228stop variant (C-terminal tail deletion) (domain or fragment),stoichiometry N,[7],2
"recombinant unspecific peroxygenase from Marasmius rotula (rMroUPO), native (nonmutated) (enzyme)",stoichiometry N,[8],2
"COc1cccc(OC)c1O [DMP, 2,6-dimethoxyphenol]",Km,rCviUPO [9],3720 ± 250 µM
same,Km,rMroUPO [10],206 ± 38 µM
same,Km,rCviUPO [11],4500 ± 424 µM
same,Km,rCviUPO [12],4930 ± 470 µM
COc1ccc(CO)cc1OC [Veratryl alcohol],Km,rCviUPO [13],2940 ± 160 µM
same,Km,rCviUPO [14],7240 ± 820 µM
same,Km,rMroUPO [15],54.2 ± 16.7 µM
same,Km,rCviUPO [16],55300 µM
